{"source": "patent US20220177511A1", "about": "“SERIES OF HALOGENATED TETRACYCLIC TRITERPENE DERIVATIVES AND THEIR PREPARATION AND APPLICATION” (SHANGHAI KING-X BIOTECH CO., LTD, priority 2019, published 2022)", "key": {"[1]": {"assay": "Plasma pharmacokinetics after single intravenous injection in rats", "assay_type": "in vivo", "conditions": "rat, intravenous 2 mg/kg, Mean ± SD; for concentration at 0.05 h: read-out: C0.05; for MRT inf: read-out: MRT0-∞; for Vd: read-out: Vz", "experimental": "Strain: SD rat; Gender: half male and female. Weight: about 200-250 g. Source: Shanghai Slac Laboratory Animal Co., Ltd. Laboratory Animal Production License No.: SOCK (Shanghai) 2017-0005. Laboratory Animal Use License Certificate number: SYXK (Shanghai) 2014-0018. Breeding: constant temperature purification and ventilation animal room, 20-26° C., free food and water, humidity 40-70%, light for 12 h.\nRoute B: single intravenous injection. Volume: calculated according to 5 mL/kg body weight. Preparation: an appropriate amount of compound 2 is dissolved in 3% total volume of DMSO. 3% total volume of castor oil is added to the solution and mixed by vortexing, an appropriate amount of normal saline is added to form an intravenous drug solution (0.4 mg/mL clear solution).\n12 SD rats were divided into 2 groups, 6 rats in each group, […]. Fasting for 12 h before administration, free drinking water. The doses of 10 mg/kg were administered as a single gavage, and the doses of 2 mg/kg were administered as a single intravenous injection. About 100 μL orbital blood was collected before administration, 3 min, 10 min, 20 min, 30 min, 1 h, 2 h, 3 h, 4 h, 6 h, 8 h, 11 h, and 24 h after administration. For intravenous administration, orbital blood was collected before administration, 3 min, 8 min, 15 min, 30 min, 1 h, 2 h, 3 h, 4 h, 6 h, 8 h, 11 h, 24 h after injection. The blood was anticoagulated with 1% heparin, centrifuged at 8000 rpm for 4 min, and the plasma was separated. Store at −20° C. High concentration samples were diluted with blank plasma. 2.1.4 Determination method of plasma samples 2.1.4.1 Instrument (LC-MS/MS)\nLiquid chromatography system: Ultimate3000 liquid chromatography system (including Ultimate3000 ternary infusion pump, Ultimate3000 column oven, Ultimate3000 autosampler and Ultimate3000 vacuum degasser), Dionex Corporation. MS/MS system: 4000 Q-Trap tandem mass spectrometer with electrospray ionization source (ESI source), AB Company\nColumn: Athena C18-WP 100A (2.1×50 mm, 5 μm); Injection volume: 10 μL; Mobile phase: A: acetonitrile; C: 0.05% ammonia, gradient elution (see table below); Flow rate: 0.3 mL/min\nThe ion source is electrospray ionization source (ESI), the drying gas (N2) temperature is 500° C., the electrospray voltage is −4500 V, the detection method is negative ion detection, the scanning method is the […] (MRM) method and the scanning time is 0.15 s. The mass spectrometry parameters are as follows:\n50 μL of rat whole blood was added with 2.5 μL of internal standard working solution (250 ng/mL tolbutamide). 150 μL of acetonitrile was used to precipitate the proteins. The sample was centrifuged at 13,000 rpm and 4° C. for 5 min. The upper organic phase was taken and filtered with a 0.22 μM microporous membrane, which was then analyzed by LC-MS/MS."}, "[2]": {"assay": "Metabolic stability in rat liver microsomes", "assay_type": "in vitro ADME"}, "C57 mouse CHF model": {"system": "C57 mouse CHF model", "assay": "In vivo efficacy on chronic heart failure in mice (coronary artery ligation, echocardiography), enalapril control", "conditions": "for Cardiac output per minute (CO), day 28 vs day 0: p<0.01 or p<0.05 (FIG. 6)", "experimental": "C57 mouse coronary artery ligation method was used in this experiment to prepare the mouse CHF model. The differences in echocardiography, hemodynamics and histopathology of the model were observed after administration. Test substance: compound 2. Solvent: 0.3% sodium carboxymethyl cellulose. Dosage: 1 mg/kg, 3 mg/kg, 10 mg/kg, 30 mg/kg and 100 mg/kg. Route of administration: intragastric. Control drug: enalapril 2 mg/kg. Strain: C57 mouse; Age: 7 weeks; Weight: 18-20 g; Gender: Male; Grade: SPF C57 mouse CHF model was established by coronary artery ligation method in this experiment. The differences in echocardiography, hemodynamics and histopathology of the model were observed after administration. 5 dose groups were set for compound 2 in this experiment. Enalapril was selected as the positive control. Once daily for 28 consecutive days. The doses for each group was 1 mg/kg, 3 mg/kg, 10 mg/kg, 30 mg/kg and 100 mg/kg. Positive control group: Enalapril (2 mg/kg) was administered after CHF was established. The mice were anesthetized in a box filled with isoflurane. After the mice were anesthetized, the left 4th intercostal space was opened to expose the left atrial appendage and left ventricle. It can be seen that the left coronary artery runs downward from the middle of the left atrial appendage to the anterior wall of the left ventricle. The coronary artery is sutured at a high position about 1 mm from the lower border of the left atrial appendage. After ligation, the myocardium gradually changes from fleshy red to pale white, indicating myocardial infarction. The model is successfully established, and the chest is closed layer by layer. After the spontaneous breathing of the mice recovered, the mice were caged and reared in a day-night cycle with free access to water and food. After being reared for 30 days, the chronic heart failure model was detected by echocardiography, and the mice with successful chronic heart failure model were selected. Qualified CHF mice screened by echocardiography were randomly grouped. Mice were given compound 2 by intragastric administration once daily for 28 consecutive days. The body weight of mice was measured every week, and echocardiography was performed after 28 days of administration. After the […] anesthetized, 1 mm^3 tissue was taken from the hearts of 3 mice in each group, fixed with electron microscope fixative, and detected by transmission electron microscope to observe the ultrastructure of the heart. All remaining heart tissues were fixed with 10% formaldehyde, and stained with HE for histopathology to observe histopathological changes."}, "[3]": {"conditions": "mice with heart failure, intragastric once daily 28 days, dose not stated"}}, "note": "“Also recorded” adds a separate entry of the source. Where two headings read alike, the source gives them in different places."}
{"smiles": "CC(C)(O)[C@@H]1CC[C@](C)([C@H]2[C@@H](O)C[C@@]3(C)[C@@H]4C[C@H](O)[C@H]5C(C)(C)C(F)(F)CC[C@@]56C[C@@]46CC[C@]23C)O1", "note": "[Compound 2, (2aR,3R,4S,5aS,5bS,7S,7aR,11aR,12aS)-9,9-difluoro-3-((2R,5S)-5-(2-hydroxypropan-2-yl)-2-methyltetrahydrofuran-2-yl)-2a,5a,8,8-tetramethyltetradecahydro-1H,12H-cyclopenta[a]cyclopropa[e]phenanthrene-4,7-diol]", "values": [{"measurement": "AUC0-t", "setting": "[1]; both sexes, all rats (♂ and ♀)", "value": "1590 ± 585", "unit": "ng·h/mL"}, {"measurement": "AUC(0-inf)", "setting": "[1]; both sexes, all rats (♂ and ♀)", "value": "1660 ± 656", "unit": "ng·h/mL"}, {"measurement": "clearance", "setting": "[1]; both sexes, all rats (♂ and ♀)", "value": 23, "unit": "mL/min/kg"}, {"measurement": "half-life", "setting": "[1]; both sexes, all rats (♂ and ♀)", "value": "1.18 ± 0.41", "unit": "h"}, {"measurement": "concentration at 0.05 h", "setting": "[1]; both sexes, all rats (♂ and ♀)", "value": "1460 ± 232", "unit": "ng/mL"}, {"measurement": "MRT inf", "setting": "[1]; both sexes, all rats (♂ and ♀)", "value": "1.55 ± 0.59", "unit": "h"}, {"measurement": "Vd", "setting": "[1]; both sexes, all rats (♂ and ♀)", "value": "2.13 ± 0.38", "unit": "L/kg"}, {"measurement": "AUC0-t", "setting": "[1]; female, rats ♀", "value": "2120 ± 114", "unit": "ng·h/mL"}, {"measurement": "AUC(0-inf)", "setting": "[1]; female, rats ♀", "value": "2250 ± 206", "unit": "ng·h/mL"}, {"measurement": "clearance", "setting": "[1]; female, rats ♀", "value": 14.9, "unit": "mL/min/kg"}, {"measurement": "half-life", "setting": "[1]; female, rats ♀", "value": 1.47, "unit": "h"}, {"measurement": "concentration at 0.05 h", "setting": "[1]; female, rats ♀", "value": "1390 ± 250", "unit": "ng/mL"}, {"measurement": "MRT inf", "setting": "[1]; female, rats ♀", "value": "2.03 ± 0.41", "unit": "h"}, {"measurement": "Vd", "setting": "[1]; female, rats ♀", "value": "1.86 ± 0.348", "unit": "L/kg"}, {"measurement": "AUC0-t", "setting": "[1]; male, rats ♂", "value": "1060 ± 113", "unit": "ng·h/mL"}, {"measurement": "AUC(0-inf)", "setting": "[1]; male, rats ♂", "value": "1080 ± 106", "unit": "ng·h/mL"}, {"measurement": "clearance", "setting": "[1]; male, rats ♂", "value": 31, "unit": "mL/min/kg"}, {"measurement": "half-life", "setting": "[1]; male, rats ♂", "value": 0.9, "unit": "h"}, {"measurement": "concentration at 0.05 h", "setting": "[1]; male, rats ♂", "value": "1540 ± 233", "unit": "ng/mL"}, {"measurement": "MRT inf", "setting": "[1]; male, rats ♂", "value": "1.07 ± 0.09", "unit": "h"}, {"measurement": "Vd", "setting": "[1]; male, rats ♂", "value": "2.39 ± 0.168", "unit": "L/kg"}, {"measurement": "melting point", "value": "189 to 192", "unit": "°C"}, {"measurement": "metabolic stability in rat liver microsomes", "setting": "[2]; compared with compound 5 (cycloastragenol)", "value": "relatively stable; also recorded: more stable than cycloastragenol"}, {"measurement": "half-life at 5 µM", "setting": "[2]; liver microsomes, 5 μM compound, 37° C.", "value": 8.63, "unit": "h"}, {"measurement": "Short axis shortening rate (FS %), day 28 vs day 0", "setting": "C57 mouse CHF model; 10 mg/kg group, p<0.0005 (FIG. 7)", "value": "significant increase; also recorded: significant elevated"}, {"measurement": "EF value, day 28 vs day 0", "setting": "C57 mouse CHF model; 10 mg/kg group, p<0.0005, highest increase p<0.0001 (FIG. 5)", "value": "significantly increased"}, {"measurement": "Cardiac output per minute (CO), day 28 vs day 0", "setting": "C57 mouse CHF model; 10 mg/kg group", "value": "significantly increased"}, {"measurement": "EF value, day 28 vs day 0", "setting": "C57 mouse CHF model; 30 mg/kg group, p<0.0005 (FIG. 5)", "value": "significantly increased"}, {"measurement": "Cardiac output per minute (CO), day 28 vs day 0", "setting": "C57 mouse CHF model; 30 mg/kg group", "value": "significantly increased"}, {"measurement": "Cardiac output per minute (CO), day 28 vs day 0", "setting": "C57 mouse CHF model; 100 mg/kg group", "value": "significantly increased"}, {"measurement": "CO per minute", "setting": "C57 mouse CHF model; [3]", "value": "significantly increased"}, {"measurement": "ejection fraction (EF)", "setting": "C57 mouse CHF model; [3]", "value": "significantly increased"}, {"measurement": "heart rate (HR)", "setting": "C57 mouse CHF model; [3]", "value": "without increasing"}, {"measurement": "short-axis shortening rate (FS)", "setting": "C57 mouse CHF model; [3]", "value": "significantly increased"}]}
